The subject of test [1] is spontaneous hypertensive rats (SHR). The test can be described thus: Hypotensive Activity: systolic arterial blood pressure, indirect tail cuff method, oral administration. The test is classed as in vivo, rat. Conditions: oral 10 m mol/Kg in polyethylene glycol, positive = fall; for Mean Change in Blood Pressure (Pressure before Administration minus pressure after Administration mm Hg) 10 min: 10 min after administration; for Mean Change in Blood Pressure (Pressure before Administration minus pressure after Administration mm Hg) 20 min: 20 min after administration; for Mean Change in Blood Pressure (Pressure before Administration minus pressure after Administration mm Hg) 30 min: 30 min after administration; for Mean Change in Blood Pressure (Pressure before Administration minus pressure after Administration mm Hg) 60 min: 60 min after administration; for Mean Change in Blood Pressure (Pressure before Administration minus pressure after Administration mm Hg) 90 min: 90 min after administration; for Mean Change in Blood Pressure (Pressure before Administration minus pressure after Administration mm Hg) 120 min: 120 min after administration. As for the experimental part:
Systolic arterial blood pressure was measured with the indirect tail cuff method in spontaneous hypertensive rats (SHR). The change in baseline pressure (170-210 mm Hg) was recorded at various time points following oral administration of 10 m mol/Kg of the test compound in polyethylene glycol.

Test [2] deals with T1, DHP Site of the Calcium Channel (Oryctolagus cuniculus, UniProt P07293).
T1 construct: Washed rabbit skeletal muscle membranes; from tissue; host or cells: rabbit skeletal muscle, washed membranes (fraction 2-8×)
Nature of the test: Binding Assay for Drugs Acting at the DHP Site of the Calcium Channel (3H-nitrendipine displacement, washed rabbit skeletal muscle membranes). Conditions: read-out: KI (moles). As for the experimental part:
A. Binding Assay for Drugs Acting at the DHP Site of the Calcium Channel.
The assay was carried out as described by Fairhurst et al., Life Sciences, 32, 1331 (1983). Washed rabbit skeletal muscle membranes (fraction 2-8×) were incubated for 30 minutes at 25° C. in 2 ml final volume of medium containing 12.5 mM HEPES buffer pH 7.4 and 0.5×10^-9 M ^3 H-nitrendipine having a specific activity of approximately 17 Ci/m mol.
The incubation tubes were rapidly chilled in ice and the contents filtered through Whatman GF/B filters on a Millipore manifold, and the filters washed with 2×10 ml ice-cold HEPES buffer. The filters were placed in scintillation counting vials with 8 ml of Cytoscint cocktail, disrupted mechanically by shaking for 30 minutes and counted.
Drugs which interact at the DHP site will reduce this specific binding in a dose-dependent manner. The assays for the compounds of this invention were made with logarithmically spaced concentrations, the data were plotted on a probit-concentration plot, and the IC50 read off. The KI of the drug was calculated by standard techniques.

In general, Ki refers to a measure of affinity in units of concentration, obtained from inhibition or displacement.

T1 sequence (P07293 whole entry): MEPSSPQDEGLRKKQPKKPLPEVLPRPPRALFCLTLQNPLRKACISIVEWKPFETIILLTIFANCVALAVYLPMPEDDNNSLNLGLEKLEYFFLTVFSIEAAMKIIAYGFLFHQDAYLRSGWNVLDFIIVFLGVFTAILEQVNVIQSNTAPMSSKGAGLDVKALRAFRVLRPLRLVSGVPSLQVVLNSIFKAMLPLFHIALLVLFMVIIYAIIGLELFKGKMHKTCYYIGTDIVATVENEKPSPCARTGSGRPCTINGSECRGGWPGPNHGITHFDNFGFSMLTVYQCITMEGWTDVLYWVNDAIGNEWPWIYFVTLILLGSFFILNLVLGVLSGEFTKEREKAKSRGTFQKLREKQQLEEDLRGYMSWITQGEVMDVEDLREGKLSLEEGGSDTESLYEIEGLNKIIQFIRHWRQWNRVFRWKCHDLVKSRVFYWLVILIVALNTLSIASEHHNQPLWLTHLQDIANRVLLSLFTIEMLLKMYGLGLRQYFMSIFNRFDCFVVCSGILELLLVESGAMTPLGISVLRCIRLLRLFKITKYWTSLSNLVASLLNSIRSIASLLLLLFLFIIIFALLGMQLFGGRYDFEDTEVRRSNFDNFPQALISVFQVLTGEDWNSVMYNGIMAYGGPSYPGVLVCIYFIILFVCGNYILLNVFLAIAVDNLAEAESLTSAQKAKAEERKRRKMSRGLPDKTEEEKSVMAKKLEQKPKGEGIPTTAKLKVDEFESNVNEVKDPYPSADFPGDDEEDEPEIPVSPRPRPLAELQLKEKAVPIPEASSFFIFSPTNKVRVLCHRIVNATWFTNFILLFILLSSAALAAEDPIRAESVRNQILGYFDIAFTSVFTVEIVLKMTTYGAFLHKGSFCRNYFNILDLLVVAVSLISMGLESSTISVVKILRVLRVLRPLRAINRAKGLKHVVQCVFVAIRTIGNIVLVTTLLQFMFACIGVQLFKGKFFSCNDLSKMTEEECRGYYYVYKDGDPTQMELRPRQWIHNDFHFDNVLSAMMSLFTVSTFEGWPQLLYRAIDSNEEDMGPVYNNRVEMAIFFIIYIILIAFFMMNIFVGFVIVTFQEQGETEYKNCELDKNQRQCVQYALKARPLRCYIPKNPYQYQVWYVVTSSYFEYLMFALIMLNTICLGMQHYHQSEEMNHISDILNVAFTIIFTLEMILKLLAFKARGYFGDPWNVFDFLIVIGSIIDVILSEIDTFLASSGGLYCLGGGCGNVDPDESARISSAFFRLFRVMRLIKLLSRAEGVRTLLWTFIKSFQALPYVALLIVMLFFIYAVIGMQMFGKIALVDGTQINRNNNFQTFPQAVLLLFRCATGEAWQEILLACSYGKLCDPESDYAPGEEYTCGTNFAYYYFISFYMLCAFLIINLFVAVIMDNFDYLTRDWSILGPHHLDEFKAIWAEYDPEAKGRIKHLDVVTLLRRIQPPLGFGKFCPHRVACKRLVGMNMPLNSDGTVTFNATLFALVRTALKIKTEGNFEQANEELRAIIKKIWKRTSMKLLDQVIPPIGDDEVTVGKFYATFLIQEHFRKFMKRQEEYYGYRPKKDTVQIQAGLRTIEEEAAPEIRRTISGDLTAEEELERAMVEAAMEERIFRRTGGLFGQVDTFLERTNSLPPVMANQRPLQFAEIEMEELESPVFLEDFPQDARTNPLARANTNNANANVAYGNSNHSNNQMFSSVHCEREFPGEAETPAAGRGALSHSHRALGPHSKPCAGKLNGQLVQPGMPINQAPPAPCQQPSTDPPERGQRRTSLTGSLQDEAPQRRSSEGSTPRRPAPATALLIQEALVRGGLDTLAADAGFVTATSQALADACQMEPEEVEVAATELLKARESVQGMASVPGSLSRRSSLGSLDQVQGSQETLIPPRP

With `COC(=O)C1=C(C)NC(C)=C(C(=O)OCCN2C(=O)c3ccccc3C2=O)C1c1cccc(C)c1` (stereo not drawn) [Example 1, 2,6-dimethyl-3-(2-phthalimidocarbethoxy)-4-(3-methylphenyl)-5-carbomethoxy-1,4-dihydropyridine], in test [1], the “Mean Change in Blood Pressure (Pressure before Administration minus pressure after Administration mm Hg) 10 min” value amounted to 17 mm Hg, the “Mean Change in Blood Pressure (Pressure before Administration minus pressure after Administration mm Hg) 20 min” value amounted to 10 mm Hg, the “Mean Change in Blood Pressure (Pressure before Administration minus pressure after Administration mm Hg) 30 min” value is recorded as 4 mm Hg and the “Mean Change in Blood Pressure (Pressure before Administration minus pressure after Administration mm Hg) 60 min” value was -2 mm Hg. Also, in test [1], the “Mean Change in Blood Pressure (Pressure before Administration minus pressure after Administration mm Hg) 90 min” value was 5 mm Hg and the “Mean Change in Blood Pressure (Pressure before Administration minus pressure after Administration mm Hg) 120 min” value is reported as -4 mm Hg. In addition, in test [2], the Ki was 19.7 nM.
Regarding `COC(=O)C1=C(C)NC(C)=C(C(=O)OCCN2C(=O)c3ccccc3C2=O)C1c1cccc([N+](=O)[O-])c1` (stereo not drawn) [Example 2, 2,6-dimethyl-3-(2-phthalimidocarbethoxy)-4-(3-nitrophenyl)-5-carbomethoxy-1,4-dihydropyridine], in test [1], the “Mean Change in Blood Pressure (Pressure before Administration minus pressure after Administration mm Hg) 10 min” value is recorded as 9 mm Hg, the “Mean Change in Blood Pressure (Pressure before Administration minus pressure after Administration mm Hg) 20 min” value came to 10 mm Hg, the “Mean Change in Blood Pressure (Pressure before Administration minus pressure after Administration mm Hg) 30 min” value amounted to 10 mm Hg and the “Mean Change in Blood Pressure (Pressure before Administration minus pressure after Administration mm Hg) 60 min” value worked out at 6 mm Hg. For the same molecule, in test [1], the “Mean Change in Blood Pressure (Pressure before Administration minus pressure after Administration mm Hg) 90 min” value turned out to be 0 mm Hg and the “Mean Change in Blood Pressure (Pressure before Administration minus pressure after Administration mm Hg) 120 min” value turned out to be 0 mm Hg. Besides, the Ki in test [2] stood at 0.7 nM.
`COC(=O)C1=C(C)NC(C)=C(C(=O)OCCN2C(=O)c3ccccc3C2=O)C1c1cccc(C(F)(F)F)c1` (stereo not drawn) [Example 3, 2-6-dimethyl-3-(2-phthalimidocarbethoxy)-4-(3-trifluoromethylphenyl)-5-carbomethoxy-1,4-dihydropyridine]: the Ki in test [2] was determined as 48 nM.
Turning to `CC1=C(C(=O)OCCN2C(=O)c3ccccc3C2=O)C(c2cccc([N+](=O)[O-])c2)C(C(=O)OCCN2C(=O)c3ccccc3C2=O)=C(C)N1` [Example 4, 2,6-dimethyl-3,5-di(2-phthalimidocarbethoxy)-4-(3-nitrophenyl)-1,4-dihydropyridine], in test [1], the “Mean Change in Blood Pressure (Pressure before Administration minus pressure after Administration mm Hg) 10 min” value was 9 mm Hg, the “Mean Change in Blood Pressure (Pressure before Administration minus pressure after Administration mm Hg) 20 min” value is listed as 8 mm Hg, the “Mean Change in Blood Pressure (Pressure before Administration minus pressure after Administration mm Hg) 30 min” value came to 14 mm Hg and the “Mean Change in Blood Pressure (Pressure before Administration minus pressure after Administration mm Hg) 60 min” value turned out to be 11 mm Hg. Besides, in test [1], the “Mean Change in Blood Pressure (Pressure before Administration minus pressure after Administration mm Hg) 90 min” value stood at 14 mm Hg and the “Mean Change in Blood Pressure (Pressure before Administration minus pressure after Administration mm Hg) 120 min” value was found to be 10 mm Hg. Also, the Ki in test [2] is 2.5 nM.
With `COC(=O)C1=C(C)NC(C)=C(C(=O)OCCCN2C(=O)c3ccccc3C2=O)C1c1cccc([N+](=O)[O-])c1` (stereo not drawn) [Example 5], in test [1], the “Mean Change in Blood Pressure (Pressure before Administration minus pressure after Administration mm Hg) 10 min” value was -5 mm Hg, the “Mean Change in Blood Pressure (Pressure before Administration minus pressure after Administration mm Hg) 20 min” value is -14 mm Hg, the “Mean Change in Blood Pressure (Pressure before Administration minus pressure after Administration mm Hg) 30 min” value was -10 mm Hg and the “Mean Change in Blood Pressure (Pressure before Administration minus pressure after Administration mm Hg) 60 min” value is reported as -6 mm Hg. Further, in test [1], the “Mean Change in Blood Pressure (Pressure before Administration minus pressure after Administration mm Hg) 90 min” value is given as -6 mm Hg and the “Mean Change in Blood Pressure (Pressure before Administration minus pressure after Administration mm Hg) 120 min” value was -5 mm Hg. Moreover, the Ki in test [2] was found to be 4.8 nM.
Turning to `COC(=O)C1=C(C)NC(C)=C(C(=O)OCCCCCCN2C(=O)c3ccccc3C2=O)C1c1cccc([N+](=O)[O-])c1` (stereo not drawn) [Example 6, 2,6-Dimethyl-3-(6-phthalimidocarbohexoxy)-4-(3-nitrophenyl)-5-carbomethoxy-1,4-dihydropyridine], in test [1], the “Mean Change in Blood Pressure (Pressure before Administration minus pressure after Administration mm Hg) 10 min” value is given as 18 mm Hg, the “Mean Change in Blood Pressure (Pressure before Administration minus pressure after Administration mm Hg) 20 min” value is reported as 10 mm Hg, the “Mean Change in Blood Pressure (Pressure before Administration minus pressure after Administration mm Hg) 30 min” value amounted to 12 mm Hg and the “Mean Change in Blood Pressure (Pressure before Administration minus pressure after Administration mm Hg) 60 min” value is recorded as 14 mm Hg. In addition, in test [1], the “Mean Change in Blood Pressure (Pressure before Administration minus pressure after Administration mm Hg) 90 min” value is listed as 2 mm Hg and the “Mean Change in Blood Pressure (Pressure before Administration minus pressure after Administration mm Hg) 120 min” value turned out to be 0 mm Hg. Further, in test [2], the Ki came to 1.9 nM.
In the case of `COC(=O)C1=C(C)NC(C)=C(C(=O)OCCN2Cc3ccccc3C2=O)C1c1cccc([N+](=O)[O-])c1` (stereo not drawn) [Example 7, 2,6-Dimethyl-3-(2-phthalimidinocarbethoxy)-4-(3-nitrophenyl)-5-carbomethoxy-1,4-dihydropyridine], in test [1], the “Mean Change in Blood Pressure (Pressure before Administration minus pressure after Administration mm Hg) 10 min” value is 14 mm Hg, the “Mean Change in Blood Pressure (Pressure before Administration minus pressure after Administration mm Hg) 20 min” value came to 19 mm Hg, the “Mean Change in Blood Pressure (Pressure before Administration minus pressure after Administration mm Hg) 30 min” value stood at 10 mm Hg and the “Mean Change in Blood Pressure (Pressure before Administration minus pressure after Administration mm Hg) 60 min” value came out at 10 mm Hg. In test [1], the “Mean Change in Blood Pressure (Pressure before Administration minus pressure after Administration mm Hg) 90 min” value is 20 mm Hg and the “Mean Change in Blood Pressure (Pressure before Administration minus pressure after Administration mm Hg) 120 min” value is 19 mm Hg. In addition, in test [2], the Ki was found to be 20 nM.
On to `COC(=O)C1=C(C)NC(C)=C(C(=O)OCCN2Cc3ccccc3C2)C1c1cccc([N+](=O)[O-])c1` (stereo not drawn) [Example 8, 2,6-Dimethyl-3-(2-isoindolinylcarbethoxy)-4-(3-nitrophenyl)-5-carbomethoxy-1,4-dihydropyridine], for which, in test [1], the “Mean Change in Blood Pressure (Pressure before Administration minus pressure after Administration mm Hg) 10 min” value is on record as 36 mm Hg, the “Mean Change in Blood Pressure (Pressure before Administration minus pressure after Administration mm Hg) 20 min” value came out at 30 mm Hg, the “Mean Change in Blood Pressure (Pressure before Administration minus pressure after Administration mm Hg) 30 min” value is reported as 32 mm Hg and the “Mean Change in Blood Pressure (Pressure before Administration minus pressure after Administration mm Hg) 60 min” value is listed as 16 mm Hg. Besides, in test [1], the “Mean Change in Blood Pressure (Pressure before Administration minus pressure after Administration mm Hg) 90 min” value amounted to 4 mm Hg and the “Mean Change in Blood Pressure (Pressure before Administration minus pressure after Administration mm Hg) 120 min” value is given as 2 mm Hg. In addition, the Ki in test [2] turned out to be 3.5 nM.
Turning to `COC(=O)C1=C(C)NC(C)=C(C(=O)OCCN2C(=O)CCC2=O)C1c1cccc([N+](=O)[O-])c1` (stereo not drawn) [Example 9, 2,6-Dimethyl-3-(2-succimimidocarbethoxy)-4-(3-nitrophenyl)-5-carbomethoxy-1,4-dihydropyridine], in test [1], the “Mean Change in Blood Pressure (Pressure before Administration minus pressure after Administration mm Hg) 10 min” value worked out at 36 mm Hg, the “Mean Change in Blood Pressure (Pressure before Administration minus pressure after Administration mm Hg) 20 min” value came to 10 mm Hg, the “Mean Change in Blood Pressure (Pressure before Administration minus pressure after Administration mm Hg) 30 min” value came to 5 mm Hg and the “Mean Change in Blood Pressure (Pressure before Administration minus pressure after Administration mm Hg) 60 min” value is 3 mm Hg. Moreover, in test [1], the “Mean Change in Blood Pressure (Pressure before Administration minus pressure after Administration mm Hg) 90 min” value is 19 mm Hg and the “Mean Change in Blood Pressure (Pressure before Administration minus pressure after Administration mm Hg) 120 min” value is reported as 11 mm Hg. Besides, the Ki in test [2] was determined as 150 nM.
`COC(=O)C1=C(C)NC(C)=C(C(=O)OCCN2CCCC2=O)C1c1cccc([N+](=O)[O-])c1` (stereo not drawn) [Example 10, 2,6-Dimethyl-3-[2-(2-oxopyrrolidino)carbethoxy]-4-(3-nitrophenyl)-5-carbomethoxy-1,4-dihydropyridine]: in test [1], the “Mean Change in Blood Pressure (Pressure before Administration minus pressure after Administration mm Hg) 10 min” value was -17 mm Hg, the “Mean Change in Blood Pressure (Pressure before Administration minus pressure after Administration mm Hg) 20 min” value was -5 mm Hg, the “Mean Change in Blood Pressure (Pressure before Administration minus pressure after Administration mm Hg) 30 min” value is 11 mm Hg and the “Mean Change in Blood Pressure (Pressure before Administration minus pressure after Administration mm Hg) 60 min” value was determined as 7 mm Hg. For the same molecule, in test [1], the “Mean Change in Blood Pressure (Pressure before Administration minus pressure after Administration mm Hg) 90 min” value amounted to 6 mm Hg and the “Mean Change in Blood Pressure (Pressure before Administration minus pressure after Administration mm Hg) 120 min” value is given as 7 mm Hg. Further, the Ki in test [2] came to 270 nM.
For the molecule `CC1=C(C(=O)OCCn2c(C)ccc2C)C(c2cccc([N+](=O)[O-])c2)C(C(=O)OCCn2c(C)ccc2C)=C(C)N1` [Example 12, 2,6-Dimethyl-3,5-(2,5-dimethylpyrrolylcarbethoxy)-4-(3-nitrophenyl)-1,4-dihydropyridine], the Ki in test [2] came out at 2.5 nM.
In the case of `COC(=O)C1=C(C)NC(C)=C(C(=O)OCCN(C)Cc2ccccc2)C1c1cccc([N+](=O)[O-])c1` (stereo not drawn) [Nicardipine, nicardipine, reference compound], the Ki in test [2] stood at 1.1 nM.
In the case of `COC(=O)C1=C(C)NC(C)=C(C(=O)OC)C1c1ccccc1[N+](=O)[O-]` [Nifedipine, nifedipine, reference compound], in test [1], the “Mean Change in Blood Pressure (Pressure before Administration minus pressure after Administration mm Hg) 10 min” value is 37 mm Hg, the “Mean Change in Blood Pressure (Pressure before Administration minus pressure after Administration mm Hg) 20 min” value is listed as 36 mm Hg, the “Mean Change in Blood Pressure (Pressure before Administration minus pressure after Administration mm Hg) 30 min” value came to 20 mm Hg and the “Mean Change in Blood Pressure (Pressure before Administration minus pressure after Administration mm Hg) 60 min” value stood at 15 mm Hg. Moreover, in test [1], the “Mean Change in Blood Pressure (Pressure before Administration minus pressure after Administration mm Hg) 90 min” value is reported as 4 mm Hg and the “Mean Change in Blood Pressure (Pressure before Administration minus pressure after Administration mm Hg) 120 min” value turned out to be 4 mm Hg.

These data come from patent publication US4652573A, “Calcium antagonist N-hetero ester 1,4-dihydropyridines” (Nelson Research & Development Co., priority 1985, dated 1987).
